The values below come from US20120122931A1, “INDOLE DERIVATIVE OR PHARMACEUTICALLY ACCEPTABLE SALT THEREOF” (KISSEI PHARMACEUTICAL CO., LTD., priority 2009, published 2012).

Structures are written as SMILES.

One assay concerns the target T1, rat EP1 receptor (Rattus norvegicus, UniProt P70597).
T1 construct: expressed in transfected cells; host or cells: COS-1 cells, transient transfection with Lipofectamine 2000
T1 sequence (P70597 1-405): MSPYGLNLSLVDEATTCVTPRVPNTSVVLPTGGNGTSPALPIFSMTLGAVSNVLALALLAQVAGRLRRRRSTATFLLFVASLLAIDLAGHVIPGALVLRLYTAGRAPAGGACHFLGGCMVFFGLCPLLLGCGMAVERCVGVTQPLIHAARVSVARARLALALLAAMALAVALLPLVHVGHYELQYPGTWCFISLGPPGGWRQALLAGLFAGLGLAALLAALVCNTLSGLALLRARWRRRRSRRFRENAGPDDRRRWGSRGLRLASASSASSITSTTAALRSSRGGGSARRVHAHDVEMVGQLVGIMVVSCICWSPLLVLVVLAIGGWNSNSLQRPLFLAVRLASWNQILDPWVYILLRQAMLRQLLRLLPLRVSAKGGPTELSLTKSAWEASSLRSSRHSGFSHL
As to the kind of experiment: Test for confirmation of EP1 receptor antagonism: inhibition of prostaglandin E2-induced increase in intracellular calcium concentration (Method A or Method B). It is filed as cell-based. Particulars: Method A (Fluo-4 NW, FlexStation); rat EP1 receptor-expressing cells; prostaglandin E2 10 nM. The procedure, abridged: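 Rat EP1 (NM_013100-matching clone) transiently expressed in COS-1 cells via Lipofectamine 2000, 200 ng vector/well, transfected about 2 h after seeding at 5×10^4 cells/well. Cells cultured at 37° C, 5% CO2.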
For orientation: Calcium flux is commonly read through the fluorescence of an indicator in the cells.

For assay [1], the system named is sulprostone-induced bladder contraction. As to the kind of experiment: Inhibitory effect of compound on sulprostone-induced bladder contraction. It is filed as in vivo. To be noted: test agent 1.0 mg/kg intravenously, sulprostone 0.3 mg/kg subcutaneously, female SD rats. As for the experimental part:
Female SD rats were used. Under urethane anesthesia (1.25 g/kg, administered subcutaneously), a tracheal cannula (Size 8, HIBIKI) and a femoral vein cannula for administration (23G needle-equipped PESO) were inserted thereinto. The bladder cannula (PESO) was inserted from the bladder apex. The bladder cannula was connected to a three-way stopcock, and then, one was connected to a pressure transducer and the other was connected to a syringe filled with saline. Saline was injected to the bladder at an injection rate of 3.6 mL/hour and the bladder contraction pressure was recorded at the time of injection with a recorder (RECTI-HORITZ-8K, NEC Corporation). After 10 minutes from stabilization of the bladder contraction pressure during urination, sulprostone was administered subcutaneously (0.3 mg/kg). Then, at the time point when the bladder contraction pressure became constant, a test agent was administered intravenously (1.0 mg/kg). An average bladder contraction pressure during the 10 minutes period before administration of sulprostone was taken as a baseline (0%). Further, an average bladder contraction pressure during the 10 minutes period before administration of the test agent was taken as a maximum bladder contraction pressure (100%). […] The ratio of this measured value to the maximum bladder contraction pressure was calculated by the following equation and taken as an average bladder contraction rate after administration of the test agent: (Average Bladder Contraction Rate after Administration of Test Agent (%))=(Average Bladder Contraction Pressure after Administration of Test Agent)/(Maximum Bladder Contraction Pressure). In addition, the difference between the maximum bladder contraction rate (100%) and the average bladder contraction rate (%) after administration of the test agent was calculated by the following equation and taken as a bladder contraction inhibition rate of the test agent: (Bladder Contraction Inhibition Rate)=100%−(Average Bladder Contraction Rate after Administration of Test Agent (%)).

With `COc1ccc2c(Cc3cccc(C(=O)O)n3)c(-c3csc(C)c3)[nH]c2c1` [Example 11-20, 6-[6-methoxy-2-(5-methylthiophen-3-yl)-1H-indol-3-ylmethyl]pyridine-2-carboxylic acid], the IC50 on rat EP1 receptor stood at 0.026 µM. The “Bladder Contraction Inhibition Rate (%) 15 Minutes” value in assay [1] (15 minutes) stood at 81.4%. Moreover, the “Bladder Contraction Inhibition Rate (%)” value in assay [1] is 82.9%.

For orientation: IC50 means the midpoint of a concentration-inhibition curve.
